Key:
Settings in all cases: 72 h
Caco-2 [1] = assay: cell viability relative to DMSO; higher = less toxic
Calu-3 [2] = assay: as above
HepG2 [3] = assay: as above
U2OS [4] = assay: as above
Vero E6 [5] = assay: as above
Caco-2 [6] = assay: relative viability EC50 (midpoint between 100% and the lowest measured viability); higher = less toxic
Calu-3 [7] = assay: as above
U2OS [8] = assay: as above
Vero E6 [9] = assay: as above
Caco-2 [10] = assay: drug sensitivity score (DSS) for viability; higher = more toxic; extreme values may be limits of the assay
Calu-3 [11] = assay: as above
HepG2 [12] = assay: as above
U2OS [13] = assay: as above
Vero E6 [14] = assay: as above
HepG2 [15] = assay: relative viability EC50 (midpoint between 100% and the lowest measured viability); higher = less toxic

SMILES | cell viability (Caco-2 [1]; 1 nM) [%] | cell viability (Caco-2 [1]; 10 nM) [%] | cell viability (Caco-2 [1]; 100 nM) [%] | cell viability (Caco-2 [1]; 1000 nM) [%] | cell viability (Caco-2 [1]; 10000 nM) [%] | cell viability (Calu-3 [2]; 1 nM) [%] | cell viability (Calu-3 [2]; 10 nM) [%] | cell viability (Calu-3 [2]; 100 nM) [%] | cell viability (Calu-3 [2]; 1000 nM) [%] | cell viability (Calu-3 [2]; 10000 nM) [%] | cell viability (HepG2 [3]; 1 nM) [%] | cell viability (HepG2 [3]; 10 nM) [%] | cell viability (HepG2 [3]; 100 nM) [%] | cell viability (HepG2 [3]; 1000 nM) [%] | cell viability (HepG2 [3]; 10000 nM) [%] | cell viability (U2OS [4]; 1 nM) [%] | cell viability (U2OS [4]; 10 nM) [%] | cell viability (U2OS [4]; 100 nM) [%] | cell viability (U2OS [4]; 1000 nM) [%] | cell viability (U2OS [4]; 10000 nM) [%] | cell viability (Vero E6 [5]; 1 nM) [%] | cell viability (Vero E6 [5]; 10 nM) [%] | cell viability (Vero E6 [5]; 100 nM) [%] | cell viability (Vero E6 [5]; 1000 nM) [%] | cell viability (Vero E6 [5]; 10000 nM) [%] | relative viability EC50 (Caco-2 [6]) [µM] | relative viability EC50 (Calu-3 [7]) [µM] | relative viability EC50 (U2OS [8]) [µM] | relative viability EC50 (Vero E6 [9]) [µM] | drug sensitivity score (Caco-2 [10]) | drug sensitivity score (Calu-3 [11]) | drug sensitivity score (HepG2 [12]) | drug sensitivity score (U2OS [13]) | drug sensitivity score (Vero E6 [14]) | relative viability EC50 (HepG2 [15]) [µM]
O=C1C=CC(=O)C2=C1C1c3ccccc3C2c2ccccc21 [INCA-6] | 97.5 | 93.5 | 94.5 | 96.6 | 90.1 | 98.2 | 99.3 | 96.7 | 95.7 | 104 | 102 | 112 | 96.8 | 106 | 68.5 | 98 | 93.7 | 98.2 | 97.5 | 88.2 | 93.3 | 96.7 | 87 | 96.1 | 105 | > 10 | > 10 | > 10 | > 10 | 0 | 0 | 1.1 | 0 | 0 | 
Cc1cccc(C)c1NC(=O)CN1CCN(CCCC(c2ccc(F)cc2)c2ccc(F)cc2)CC1 [lidoflazine] | 83.7 | 99.5 | 84.9 | 105 | 68.2 | 106 | 113 | 112 | 102 | 88.4 | 99.5 | 109 | 108 | 96.2 | 80.9 | 105 | 103 | 101 | 107 | 92.7 | 117 | 106 | 102 | 98.2 | 87.4 |  | > 10 | > 10 | > 10 | 1.1 | 0 | 1 | 0 | 0.2 | > 10
Cc1nn(C)c2nc(NNC(=O)Nc3cc(Cl)nc(Cl)c3)cc(C(C)C)c12 [JTE-013] | 96.7 | 100 | 105 | 100 | 82.4 | 101 | 101 | 97.5 | 110 | 92 | 97.8 | 93.1 | 104 | 95.6 | 74.2 | 107 | 100 | 99.4 | 93.6 | 92.9 | 99.1 | 105 | 95.7 | 100 | 93.9 | > 10 | > 10 | > 10 | > 10 | 0.4 | 0 | 1.7 | 0 | 0 | 
CC(=O)Oc1ccccc1C(=O)Oc1cccc(CO[N+](=O)[O-])c1 [NO-ASA] |  |  |  |  |  | 96.3 | 101 | 98.9 | 103 | 107 | 95.4 | 104 | 100 | 88.9 | 79.9 | 98 | 98.5 | 99.4 | 101 | 93.1 | 102 | 108 | 101 | 89.7 | 105 |  | > 10 | > 10 | > 10 |  | 0 | 1.7 | 0 | 0 | > 10
CN1CCN(c2ccc(C(=O)Nc3n[nH]c4ccc(Cc5cc(F)cc(F)c5)cc34)c(NC3CCOCC3)c2)CC1 [entrectinib] | 98.7 | 97 | 100 | 81.2 | 5.3 | 96.7 | 95.8 | 98.5 | 76.9 | 1.7 | 104 | 100 | 102 | 71.9 | 0.1 |  |  |  |  |  | 98.5 | 101 | 99.4 | 80.5 | 0.3 | 1.74 | 1.6 |  | 1.76 | 8.3 | 9 | 9.7 |  | 8.7 | 1.45
CN(C)N(C)C(=O)[C@@]1(Cc2ccccc2)CCCN(C(=O)[C@@H](Cc2c[nH]c3ccccc23)NC(=O)C(C)(C)N)C1 [anamorelin] |  |  |  |  |  | 85.1 | 86.9 | 91.7 | 94.4 | 89.8 | 113 | 99.6 | 106 | 102 | 103 | 103 | 100 | 104 | 102 | 99.5 | 103 | 107 | 101 | 104 | 95.4 |  | > 10 | > 10 | > 10 |  | 0 | 0 | 0 | 0 | > 10
O[C@H]1[C@H](O)[C@@H](O)[C@H](O)[C@@H](O)[C@H]1O [inositol] | 95.8 | 111 | 91 | 105 | 69.8 | 112 | 94.6 | 104 | 96.1 | 100 | 123 | 102 | 105 | 93.3 | 98.8 | 106 | 104 | 96.7 | 103 | 101 | 110 | 101 | 98.1 | 99.4 | 99.5 |  | > 10 | > 10 | > 10 | 1 | 0 | 0 | 0 | 0 | > 10
c1ccc(N2CCN(CCCOc3ccc4c(c3)OCO4)CC2)cc1 [BP-554] | 107 | 102 | 101 | 105 | 98.7 | 101 | 107 | 99.5 | 103 | 110 | 107 | 93.1 | 95.3 | 102 | 103 |  |  |  |  |  | 94.5 | 94.6 | 94.7 | 96.2 | 96 | > 10 | > 10 |  | > 10 | 0 | 0 | 0 |  | 0 | > 10
NC(=O)NCCN1CCN(c2cccc(C(F)(F)F)c2)CC1 [fluprazine] | 107 | 86.5 | 85.3 | 96.8 | 72.3 | 105 | 97.6 | 101 | 91.7 | 99.5 | 93.3 | 112 | 110 | 97.7 | 109 | 102 | 103 | 94.3 | 101 | 99.9 | 103 | 99.5 | 110 | 110 | 104 |  | > 10 | > 10 | > 10 | 2 | 0 | 0 | 0 | 0 | > 10
O=C(Nc1cc(-c2ccccc2)nn1-c1ccccc1F)c1ccc([N+](=O)[O-])cc1 [VU1545] |  |  |  |  |  | 101 | 97.7 | 92.9 | 98 | 87.5 | 107 | 83.9 | 104 | 89.6 | 97.5 |  |  |  |  |  | 111 | 105 | 107 | 108 | 99.9 |  | > 10 |  | > 10 |  | 0 | 0 |  | 0 | > 10
Nc1nc2c(cnn2CCc2ccccc2)c2nc(-c3ccco3)nn12 | 96.7 | 104 | 93.5 | 78.3 | 67.5 | 88.2 | 100 | 95.7 | 113 | 90.7 | 97.7 | 101 | 90.9 | 25.5 | 12.7 | 98 | 99.8 | 92.7 | 98.6 | 100 | 107 | 99.8 | 98.2 | 99.6 | 96.1 |  | > 10 | > 10 | > 10 | 4.1 | 0 | 14.9 | 0 | 0 | 0.354
O=C(c1ccc(F)c(F)c1Nc1ccc(I)cc1F)N1CC(O)([C@@H]2CCCCN2)C1 [cobimetinib] | 89.5 | 82.8 | 84.8 | 69.1 | 63.1 | 93.2 | 86.6 | 81.4 | 50.1 | 32.7 | 94.3 | 86.7 | 32.8 | 24.5 | 17.1 | 96.5 | 94.5 | 94.3 | 75.8 | 23.6 | 90.2 | 86.1 | 72.9 | 50.2 | 45.7 |  | 0.238 | 1.43 | 0.0591 | 8.3 | 11.9 | 24.5 | 7.4 | 13 | 0.0341

Source: the supplement of paper PMC13380429
